This is an account of results in PMC7531004, “Discovery of gramicidin A analogues with altered activities by multidimensional screening of a one-bead-one-compound library” (Nature Communications, 2020).

For data set [1], the system named is P388 mouse leukemia cells. To be noted: 92 h. Summed up: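 First, library peptide stocks are diluted 250-fold in RPMI1640 with 10% heat-inactivated FBS. Next, they are mixed with P388 cells to give 1 × 10^4 cells/mL and incubated 92 h at 37 °C, 5% CO2. Finally, viability (%) is scored by WST-1 absorbance at 415 nm.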
Data set [2] can be described thus: H+/Na+ transport assay of bead-derived peptides (one-point).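 Also: relative to parent gramicidin A activity set to 1.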 The data set is classed as biochemical. Details: key: relative activity; mean of two control wells = 1.00. To be noted: bead-derived peptide solution, EYPC/EYPG LUVs. In a few lines: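 H+/Na+ transport is monitored through pyranine fluorescence in freshly extruded LUVs after a 30-min room-temperature vortex with each library peptide at a single concentration. Signals are normalized to detergent (Triton X-100) and untreated controls.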

For data set [3], the system named is Streptococcus pyogenes SSI-9. Kind of data set: Antibacterial activity assay of bead-derived peptides (three concentrations). The data set is classed as cell-based. To be noted: S. pyogenes, bead-derived peptide solution, three concentrations. Details: key: +++: inhibition by the 640-fold diluted peptide solution; ++: inhibition by the 160-fold diluted solution; +: inhibition by the 40-fold diluted solution; -: no inhibition. Summed up: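 Three stock dilutions per peptide (none, 4-fold, 16-fold in DMSO) are screened in 96-well format. The medium is blood-supplemented cation-adjusted MHB, inoculated with 2 × 10^5 CFU S. pyogenes SSI-9. Growth is read as cell precipitation at 18 h, 37 °C.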

Where a SMILES comes first, the peptide text is derived from it. [ ]: non-standard residue; d: D form. The star is where a group is joined. NHCH2CH2OH = OCCN*; For = O=C*

Regarding `CC(C)C[C@@H](NC(=O)[C@H](C)NC(=O)[C@H](NC(=O)[C@H](C)NC(=O)CNC(=O)[C@@H](NC=O)C(C)C)C(C)C)C(=O)N[C@H](C(=O)N[C@@H](C(=O)N[C@@H](Cc1c[nH]c2ccccc12)C(=O)N[C@H](CC(C)C)C(=O)N[C@@H](Cc1c[nH]c2ccccc12)C(=O)N[C@@H](C(=O)N[C@@H](Cc1c[nH]c2ccccc12)C(=O)N[C@@H](C(=O)N[C@@H](Cc1c[nH]c2ccccc12)C(=O)NCCO)C(C)C)C(C)C)C(C)C)C(C)C` [compound 6888] (For-VGA[dV]A[dL]V[dV]W[dL]W[dV]W[dV]W-NHCH2CH2OH), the cell viability/% in data set [1] is listed as 78.6%. In addition, in data set [2], the “H+/Na+ transport activity normalized against the value of 1 (1.00)” value (shortened to “H+/Na+ transport activity normalized”) stood at 1.23. Besides, in data set [3], the antibacterial activity result was “+”.
Regarding `CC(C)C[C@@H](NC(=O)[C@H](C)NC(=O)CNC(=O)[C@@H](NC=O)C(C)C)C(=O)N[C@@H](C)C(=O)N[C@@H](C(=O)N[C@H](C(=O)N[C@@H](C(=O)N[C@@H](Cc1c[nH]c2ccccc12)C(=O)N[C@H](CC(C)C)C(=O)N[C@@H](Cc1c[nH]c2ccccc12)C(=O)N[C@H](CC(C)C)C(=O)N[C@@H](Cc1c[nH]c2ccccc12)C(=O)N[C@H](CC(C)C)C(=O)N[C@@H](Cc1c[nH]c2ccccc12)C(=O)NCCO)[C@H](C)O)C(C)C)C(C)C` [compound 6766] (For-VGA[dL]A[dV]V[dT]W[dL]W[dL]W[dL]W-NHCH2CH2OH), the cell viability/% in data set [1] is 100.0%. The “H+/Na+ transport activity normalized” value in data set [2] stood at 1.07. For the same compound, in data set [3], the antibacterial activity entry is given as “+”.
With `CC(C)[C@H](NC=O)C(=O)NCC(=O)N[C@@H](C)C(=O)N[C@@H](C(=O)N[C@@H](C)C(=O)N[C@@H](C(=O)N[C@H](C(=O)N[C@@H](C(=O)N[C@@H](Cc1c[nH]c2ccccc12)C(=O)N[C@@H](C(=O)N[C@@H](Cc1c[nH]c2ccccc12)C(=O)N[C@@H](C(=O)N[C@@H](Cc1c[nH]c2ccccc12)C(=O)N[C@@H](C(=O)N[C@@H](Cc1c[nH]c2ccccc12)C(=O)NCCO)C(C)C)C(C)C)C(C)C)C(C)C)C(C)C)C(C)C)[C@H](C)O` [compound 8545] (For-VGA[dT]A[dV]V[dV]W[dV]W[dV]W[dV]W-NHCH2CH2OH), in data set [1], the cell viability/% is on record as 83.1%. In addition, the “H+/Na+ transport activity normalized” value in data set [2] was found to be 1.01. Further, in data set [3], the antibacterial activity result is “-”.
Turning to `CC(C)C[C@@H](NC(=O)[C@H](C)NC(=O)CNC(=O)[C@@H](NC=O)C(C)C)C(=O)N[C@@H](C)C(=O)N[C@@H](C(=O)N[C@H](C(=O)N[C@H](CC(C)C)C(=O)N[C@@H](Cc1c[nH]c2ccccc12)C(=O)N[C@H](CC(C)C)C(=O)N[C@@H](Cc1c[nH]c2ccccc12)C(=O)N[C@@H](C(=O)N[C@@H](Cc1c[nH]c2ccccc12)C(=O)N[C@H](CC(C)C)C(=O)N[C@@H](Cc1c[nH]c2ccccc12)C(=O)NCCO)[C@H](C)O)C(C)C)C(C)C` [compound 4128] (For-VGA[dL]A[dV]V[dL]W[dL]W[dT]W[dL]W-NHCH2CH2OH), in data set [1], the cell viability/% is 100.0%. The “H+/Na+ transport activity normalized” value in data set [2] was 1.03. In addition, in data set [3], the antibacterial activity entry is “+”.
Compound `CC(C)C[C@@H](NC(=O)[C@H](C)NC(=O)[C@H](NC(=O)[C@H](C)NC(=O)CNC(=O)[C@@H](NC=O)C(C)C)[C@H](C)O)C(=O)N[C@H](C(=O)N[C@H](CC(C)C)C(=O)N[C@@H](Cc1c[nH]c2ccccc12)C(=O)N[C@@H](C(=O)N[C@@H](Cc1c[nH]c2ccccc12)C(=O)N[C@@H](C(=O)N[C@@H](Cc1c[nH]c2ccccc12)C(=O)N[C@H](CC(C)C)C(=O)N[C@@H](Cc1c[nH]c2ccccc12)C(=O)NCCO)C(C)C)C(C)C)C(C)C` [compound 2242] (For-VGA[dT]A[dL]V[dL]W[dV]W[dV]W[dL]W-NHCH2CH2OH) showed a cell viability/% in data set [1] of 100.0%. Further, in data set [2], the “H+/Na+ transport activity normalized” value is reported as 1.15. Moreover, in data set [3], the antibacterial activity entry is listed as “-”.
In data set [1], `CNC(=O)C[C@@H](NC(=O)[C@@H](NC(=O)[C@@H](CC(C)C)NC(=O)[C@H](C)NC(=O)[C@H](NC(=O)[C@H](C)NC(=O)CNC(=O)[C@@H](NC=O)C(C)C)C(C)C)C(C)C)C(=O)N[C@@H](Cc1c[nH]c2ccccc12)C(=O)N[C@H](CC(C)C)C(=O)N[C@@H](Cc1c[nH]c2ccccc12)C(=O)N[C@H](CC(C)C)C(=O)N[C@@H](Cc1c[nH]c2ccccc12)C(=O)N[C@@H](C(=O)N[C@@H](Cc1c[nH]c2ccccc12)C(=O)NCCO)C(C)C` [compound 6360] (For-VGA[dV]A[dL]V[dD](NHMe)W[dL]W[dL]W[dV]W-NHCH2CH2OH) had a cell viability/% of 67.2%. Moreover, the “H+/Na+ transport activity normalized” value in data set [2] was determined as 1.03. The antibacterial activity entry in data set [3] was “-”.
Compound `CC(C)C[C@@H](NC(=O)[C@H](Cc1c[nH]c2ccccc12)NC(=O)[C@H](NC(=O)[C@H](Cc1c[nH]c2ccccc12)NC(=O)[C@@H](CC(C)C)NC(=O)[C@@H](NC(=O)[C@H](NC(=O)[C@H](C)NC(=O)[C@H](NC(=O)[C@H](C)NC(=O)CNC(=O)[C@@H](NC=O)C(C)C)C(C)C)C(C)C)C(C)C)C(C)C)C(=O)N[C@@H](Cc1c[nH]c2ccccc12)C(=O)N[C@@H](C(=O)N[C@@H](Cc1c[nH]c2ccccc12)C(=O)NCCO)C(C)C` [compound 5526] (For-VGA[dV]A[dV]V[dL]W[dV]W[dL]W[dV]W-NHCH2CH2OH) registered a cell viability/% in data set [1] of 100.0%. The “H+/Na+ transport activity normalized” value in data set [2] amounted to 1.17. The antibacterial activity entry in data set [3] is “+”.
Compound `CC(C)C[C@@H](NC(=O)[C@H](C)NC(=O)[C@H](NC(=O)[C@H](C)NC(=O)CNC(=O)[C@@H](NC=O)C(C)C)C(C)C)C(=O)N[C@H](C(=O)N[C@H](CC(C)C)C(=O)N[C@@H](Cc1c[nH]c2ccccc12)C(=O)N[C@@H](C(=O)N[C@@H](Cc1c[nH]c2ccccc12)C(=O)N[C@@H](C(=O)N[C@@H](Cc1c[nH]c2ccccc12)C(=O)N[C@@H](C(=O)N[C@@H](Cc1c[nH]c2ccccc12)C(=O)NCCO)[C@H](C)O)C(C)C)C(C)C)C(C)C` [compound 13147] (For-VGA[dV]A[dL]V[dL]W[dV]W[dV]W[dT]W-NHCH2CH2OH) yielded a cell viability/% in data set [1] of 94.4%. Moreover, in data set [2], the “H+/Na+ transport activity normalized” value was 1.09. Moreover, in data set [3], the antibacterial activity entry is “-”.
Turning to `CC(C)C[C@@H](NC(=O)[C@H](Cc1c[nH]c2ccccc12)NC(=O)[C@H](NC(=O)[C@H](Cc1c[nH]c2ccccc12)NC(=O)[C@@H](CC(C)C)NC(=O)[C@H](Cc1c[nH]c2ccccc12)NC(=O)[C@H](NC(=O)[C@@H](NC(=O)[C@H](NC(=O)[C@H](C)NC(=O)[C@H](NC(=O)[C@H](C)NC(=O)CNC(=O)[C@@H](NC=O)C(C)C)C(C)C)C(C)C)C(C)C)C(C)C)C(C)C)C(=O)N[C@@H](Cc1c[nH]c2ccccc12)C(=O)NCCO` [compound 1844] (For-VGA[dV]A[dV]V[dV]W[dL]W[dV]W[dL]W-NHCH2CH2OH), the cell viability/% in data set [1] came out at 47.9%. For the same compound, in data set [2], the “H+/Na+ transport activity normalized” value turned out to be 1.18. In addition, the antibacterial activity entry in data set [3] is given as “++”.
`CNC(=O)C[C@@H](NC(=O)[C@@H](NC(=O)[C@@H](CC(C)C)NC(=O)[C@H](C)NC(=O)[C@H](NC(=O)[C@H](C)NC(=O)CNC(=O)[C@@H](NC=O)C(C)C)C(C)C)C(C)C)C(=O)N[C@@H](Cc1c[nH]c2ccccc12)C(=O)N[C@H](CC(C)C)C(=O)N[C@@H](Cc1c[nH]c2ccccc12)C(=O)N[C@H](CC(C)C)C(=O)N[C@@H](Cc1c[nH]c2ccccc12)C(=O)N[C@@H](C(=O)N[C@@H](Cc1c[nH]c2ccccc12)C(=O)NCCO)C(C)C` [compound 3800] (For-VGA[dV]A[dL]V[dD](NHMe)W[dL]W[dL]W[dV]W-NHCH2CH2OH) registered a cell viability/% in data set [1] of 100.0%. The “H+/Na+ transport activity normalized” value in data set [2] is 1.23. In data set [3], the antibacterial activity entry was “-”.
For `CC(C)C[C@@H](NC(=O)[C@H](C)NC(=O)[C@H](NC(=O)[C@H](C)NC(=O)CNC(=O)[C@@H](NC=O)C(C)C)[C@H](C)O)C(=O)N[C@H](C(=O)N[C@H](CC(C)C)C(=O)N[C@@H](Cc1c[nH]c2ccccc12)C(=O)N[C@H](CC(C)C)C(=O)N[C@@H](Cc1c[nH]c2ccccc12)C(=O)N[C@@H](C(=O)N[C@@H](Cc1c[nH]c2ccccc12)C(=O)N[C@@H](C(=O)N[C@@H](Cc1c[nH]c2ccccc12)C(=O)NCCO)C(C)C)C(C)C)C(C)C` [compound 9125] (For-VGA[dT]A[dL]V[dL]W[dL]W[dV]W[dV]W-NHCH2CH2OH) the same measures were 44.2%, 1.04 and “-”.
The compound `CC(C)C[C@@H](NC(=O)[C@H](Cc1c[nH]c2ccccc12)NC(=O)[C@H](NC(=O)[C@H](Cc1c[nH]c2ccccc12)NC(=O)[C@H](NC(=O)[C@@H](NC(=O)[C@H](NC(=O)[C@H](C)NC(=O)[C@H](NC(=O)[C@H](C)NC(=O)CNC(=O)[C@@H](NC=O)C(C)C)C(C)C)C(C)C)C(C)C)C(C)C)C(C)C)C(=O)N[C@@H](Cc1c[nH]c2ccccc12)C(=O)N[C@@H](C(=O)N[C@@H](Cc1c[nH]c2ccccc12)C(=O)NCCO)C(C)C` [compound 676] (For-VGA[dV]A[dV]V[dV]W[dV]W[dL]W[dV]W-NHCH2CH2OH) gave a cell viability/% in data set [1] of 100.0%. Also, the “H+/Na+ transport activity normalized” value in data set [2] came out at 1.02. In addition, in data set [3], the antibacterial activity result is reported as “++”.
